Reference: US5955493A, “Thiamorphinans with neuroprotective activity” (priority 1995, dated 1999)

What was measured:
[1] = test system: NMDA-induced convulsion; assay: Inhibition of NMDA-induced convulsion (i.c.v. coinjection); format: in vivo, Male Swiss Webster mice
Protocol: Male Swiss Webster mice [(SW) fBR] 20-25 g (Canadian Breading Farms St. Constant, Quebec), were coinjected intracerebroventricullarly (i.c.v.) with various doses of test compound and NMDA (1 and 2 nmol; Sigma Chemical Co., St. Louis, Mo.) in total volume of 10 μl. […] The convulsive response to NMDA was within 5 minutes of injection, characterized by wild running, popcorn jumping and myoclonic seizures (i.e. repetitive movements involving all limbs simultaneously, usually accompanied by loss of righting reflex). A minimum of 15 animals were used in each treatment group. The number of mice convulsing in each group was recorded. The dose producing convulsions in 50% of the mice (CD50) was calculated by the method of Litchfield and Wilcoxon ("Manual and Pharmacological Calculations with Computer Programs", 2nd ed., Springer, N.Y., 1987).

[2] = test system: Mice; assay: Rotarod test (motor effects); format: in vivo; settings: i.c.v.; for Max. % mice showing motor effect: rotarod 8 revolutions per min, *P ≤ 0.05 as compared with control
Description: The rotarod treadmill for mice (model 7600, UGO Basile, Italy) was used to assess the motor effects of the test compounds. The method used was similar to the procedure described by Dunham and Miya (J. Am. Pharmac. Assoc., 1957, 46:208). The apparatus consisted of a rod with a diameter of 2.5 cm which was suspended horizontally 50 cm above a plain working area. The rod was turned at a speed of 8 revolutions per min. Circular perspex separators were placed at intervals along the rod so that five animals could be tested at the same time. Before administering any compound, all tested mice were placed on the turning rod for 1 min on two consecutive days. Mice that fell from the rod during this test were excluded. The test compounds were administered i.c.v. and the % of mice showing motor effects was monitored.

[3] = test system: Mice; assay: Locomotion and falling behavior; format: in vivo; settings: i.c.v.; for % mice showing significant effect (falling): at min. dose for falling; for % mice showing significant effect (locomotion): at min. dose for locomotion; for min. dose for falling / min. dose for locomotion: observed 15 to 30 min after injection
Protocol: Mice were placed individually in observation cages for a 60 minute habituation period, injected i.c.v. with the different compounds and observed from 15 to 30 min. after injection. Locomotion and falling behavior were assessed according to the procedure of Koek and Colpaert (J. Pharm. Exp. Ther., 1990, 252:349). For each mouse the presence of locomotion (locomotion with all four legs moving for at least 15 seconds) and falling behavior (falling from rearing or standing position backward or to the side) was recorded. Statistical significance of drug-induced changes in the occurrence of a particular behavior was tested by the method of Fray et al […].

[4] = test system: Bicuculline-induced convulsions; assay: Inhibition of bicuculline-induced convulsions; format: in vivo, Male Swiss Webster mice; settings: i.c.v.
Protocol: (§1) Male Swiss Webster mice [(SW) fBR]20-25 g, were coinjected intracerebroventricullarly (i.c.v.) with various doses of test compounds, α- and β-sulfallorphan, with AMPA (0.25-2.0) nmol; Research Biochemical Inc.) kainic acid (0.25-0.75 nmol; Sigma Chemical Co.) and biculline (1-10 nmol; Research Biochemical Inc.) in total volume of 10 μl. […] The convulsive response to the AMPA, kainic acid and biculline was within 5 minutes of injection, characterized by wild running, popcorn jumping and myoclonic seizures (i.e. repetitive movements involving all limbs simultaneously, usually accompanied by loss of righting reflex). A minimum of 15 animals were used in each treatment group. The number of mice convulsing in each group was recorded. The dose producing convulsions in 50% of the mice (CD50) was calculated by the method of Litchfield and Wilcoxon. LD50, the dose producing mortality in 50% of the mice, was determined by Fisher's exect test. The results for both α- and β-sulfallorphan are summarized below in tables II and III.

[5] = test system: Kainic acid-induced convulsions; assay: Inhibition of kainic acid-induced convulsions; format: in vivo, Male Swiss Webster mice; settings: i.c.v.
Protocol: as §1

[6] = test system: AMPA-induced convulsions; assay: Inhibition of AMPA-induced convulsions; format: in vivo, Male Swiss Webster mice; settings: i.c.v.
Protocol: as §1, with “[…];” for “with AMPA (0.25-2.0) nmol;”

| Structure (SMILES) | CD50 ([1]; 1 nmol NMDA) [nmol/mouse] | CD50 ([1]; 2 nmol NMDA) [nmol/mouse] | Max. % mice showing motor effect [2] [%] | also measured |
| --- | --- | --- | --- | --- |
| CN1CC[C@@]23CCCC[C@@H]2[C@@H]1Cc1ccc(O)cc13 [dextrorphan, reference compound] | 0.55 | > 100 | 60 | motor effect (statement) ([2]; α-sulfallorphan 30 nmol/mouse, dextrorphan 60 nmol/mouse): induces a significant rise in motor effect |
| Oc1ccc2c(c1)[C@@]13CCCC[C@H]1[C@@H](C2)[S+](CCc1ccccc1)CC3 (relative stereo) [compound 14, 3-hydroxy-17-deaza-17-phenethylthionium-17-thiamorphinan] | 0.99 | – | 20 | – |
| C=CCN1CC[C@]23CCCC[C@H]2[C@H]1Cc1ccc(O)cc13 [levallorphan] | 1.06 | > 20 | – | – |
| COc1ccc2c(c1)[C@]13CCCC[C@@H]1[C@H](C2)N(C)CC3 [dextromethorphan] | – | – | – | % mice showing significant effect (falling) [3]: 27%; % mice showing significant effect (locomotion) [3]: 30%; min. dose for falling [3]: 0.20 nmol/mouse; min. dose for locomotion [3]: 0.10 nmol/mouse |
| C=CC[S+]1CC[C@]23CCCC[C@H]2[C@H]1Cc1ccc(O)cc13 (stereo partly drawn) [β-sulfallorphan 16, 3-hydroxy-17-deaza-17-allylthionium-17-thiamorphinan] | 0.015 | 0.28 | 20 | CD50 ([4]; CD50 of bicuculline (1-10 nmol/mouse) with 0.4 nmol/mouse β-sulfallorphan): 3.12 nmol/mouse; LD50 ([4]; LD50 of bicuculline (1-10 nmol/mouse) with 0.4 nmol/mouse β-sulfallorphan, none = no mortality observed at dose tested): none; CD50 ([5]; CD50 of kainic acid (0.25-0.72 nmol/mouse) with 0.4 nmol/mouse β-sulfallorphan): 0.39 nmol/mouse; LD50 ([5]; LD50 of kainic acid (0.25-0.72 nmol/mouse) with 0.4 nmol/mouse β-sulfallorphan, none = no mortality observed at dose tested): none; % mice showing significant effect (locomotion) [3]: 20%; locomotion and falling behavior (statement) [3]: less locomotion than dextromethorphan and required greater amount to exhibit a significant effect; min. dose for falling [3]: no effect; min. dose for locomotion [3]: 1.25 nmol/mouse; CD50 ([6]; CD50 of AMPA (0.25-5 nmol/mouse) with 0.4 nmol/mouse β-sulfallorphan): 0.29 nmol/mouse; LD50 ([6]; LD50 of AMPA (0.25-5 nmol/mouse) with 0.4 nmol/mouse β-sulfallorphan, none = no mortality observed at dose tested): none |
| C=CC[S+]1CC[C@]23CCCC[C@H]2[C@H]1Cc1ccc(O)cc13 (relative stereo) [compound 12, 3-hydroxy-17-deaza-17-allylthionium-17-thiamorphinan] | 0.07 | – | – | – |
| C[C@]12N[C@H](Cc3ccccc31)c1ccccc12 [MK-801] | – | – | – | % mice showing significant effect (falling) [3]: 50%; % mice showing significant effect (locomotion) [3]: 30%; min. dose for falling [3]: 1.50 nmol/mouse; min. dose for locomotion [3]: 0.25 nmol/mouse |
| C=CCN1CC[C@@]23CCCC[C@@H]2[C@@H]1Cc1ccc(O)cc13 [dextrallorphan] | 2.68 | 43.2 | – | – |
| CN1CC[C@]23CCCC[C@H]2[C@H]1Cc1ccc(O)cc13 [levorphanol] | 0.21 | > 200 | – | – |
| CC(C)=CC[S+]1CC[C@]23CCCC[C@H]2[C@H]1Cc1ccc(O)cc13 (relative stereo) [compound 13, 3-hydroxy-17-deaza-17-dimethylallylthionium-17-thiamorphinan] | 0.19 | – | 0 | – |
| C[S+]1CC[C@]23CCCC[C@H]2[C@H]1Cc1ccc(O)cc13 (relative stereo) [compound 17, 3-hydroxy-17-deaza-17-methylthionium-17-thiamorphinan] | 0.02 | – | 60 | – |
